For one assay, the system named is P. gingivalis ATCC 33277. The assay can be described thus: Growth curves, OD at 600 nm. It counts as cell-based, Porphyromonas gingivalis. To be noted: laboratory strain ATCC 33277, Fig. 6A. The protocol: (§1) In addition, we monitored the growth of two P. gingivalis strains ([…] and J374-1) by measuring the OD at 600 nm at different time points (it was not possible to make continuous measurements due to the anaerobic growth conditions of P. gingivalis), with the OD600 being recorded at 0 h, 16 h, 20 h, 24 h, and 42 h.

The test system of another assay is P. gingivalis J374-1. The assay can be described thus: Growth curves, OD at 600 nm. It counts as cell-based, Porphyromonas gingivalis. To be noted: clinical isolate J374-1, Fig. 6B. As to the method:
as §1

Assay [1] deals with Porpyhromonas gingivalis J374–1 (clinical isolate). The assay can be described thus: MIC, micro-broth dilution. It counts as cell-based, Porphyromonas gingivalis. The protocol:
(§2) The micro-broth dilution technique was used to determine MICs. After subcultivation of bacterial strains and checking of purity, a defined inoculum was added to Wilkins–Chalgren broth (Oxoid) supplemented with 10 μg/ml β-NAD (Sigma-Aldrich) containing the inhibitor. A twofold dilution series was made, starting from 2 mM (final concentration) of the inhibitor. The growth control contained 10% of the inhibitor dissolvent at 2 mM (0.01% DMSO in a buffer with 50 mM TRIS, pH 8, and 50 mM NaCl). After an incubation period of 42 h (18 h for the aerobic S. gordonii), the growth of microbes was analyzed by visual analysis of the turbidity. MIC represents the lowest concentration without visible turbidity. All experiments were made using independent replicates.
On the technique in general: Dilution methods test growth across graded concentrations, often in twofold steps.

Assay [2] concerns Porpyhromonas gingivalis ATCC 33277. Description: MIC, micro-broth dilution. It counts as cell-based, Porphyromonas gingivalis. As to the method: as §2
The subject of assay [3] is Porpyhromonas gingivalis M5-1-2 (clinical isolate). The assay can be described thus: MIC, micro-broth dilution. It counts as cell-based, Porphyromonas gingivalis. As to the method:
as §2

A further assay concerns the target HsQC (Homo sapiens, UniProt Q16769). The assay can be described thus: QC inhibition assay with fluorogenic substrate H-Gln-AMC (Ki). It counts as biochemical. To be noted: read-out: Ki value for HsQC.
The target in the next assay is PgQC (Porphyromonas gingivalis, UniProt Q7MT37). The description is as above. It counts as biochemical. Also on record: His-tag (pET28a, thrombin-cleavable) (N, cleaved yes); made in house; host or cells: E. coli Rosetta(DE3)pLysS. To be noted: Ki value for PgQC. As to the method:
Inhibitory constants were determined using concentrations of H-Gln-AMC varying from 1/4 KM to 2 KM and a final concentration of bacterial QC in a range between 25 nM and 50 nM. Progress curves were fitted to the general equation for competitive inhibition.

For assay [4], the system named is Fusobacterium nucleatum ATCC 25586. Description: MIC, micro-broth dilution. It counts as cell-based. The protocol:
as §2

Assay [5] has as its system Prevotella intermedia ATCC 25611. The assay can be described thus: MIC, micro-broth dilution. It counts as cell-based. As to the method:
as §2

The subject of assay [6] is Tannerella forsythia ATCC 43037. Description: MIC, micro-broth dilution. It counts as cell-based. The protocol: as §2
Assay [7] has as its system Streptococcus gordonii ATCC 10558. Description: MIC, micro-broth dilution. It counts as cell-based. The protocol: as §2

Converted amounts (≈) assume the structure as drawn. “Also recorded” adds a separate entry of the source.

Chain of HsQC (Q16769 29-361): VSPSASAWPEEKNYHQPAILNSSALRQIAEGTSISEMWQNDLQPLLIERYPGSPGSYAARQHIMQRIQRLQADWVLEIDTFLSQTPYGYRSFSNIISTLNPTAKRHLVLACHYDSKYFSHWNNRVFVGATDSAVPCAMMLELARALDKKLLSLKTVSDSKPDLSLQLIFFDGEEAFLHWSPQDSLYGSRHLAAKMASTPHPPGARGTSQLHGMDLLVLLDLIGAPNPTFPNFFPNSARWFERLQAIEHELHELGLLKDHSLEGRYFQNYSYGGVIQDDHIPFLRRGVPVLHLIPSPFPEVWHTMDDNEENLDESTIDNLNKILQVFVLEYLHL
Chain of PgQC (Q7MT37 entry or part of it): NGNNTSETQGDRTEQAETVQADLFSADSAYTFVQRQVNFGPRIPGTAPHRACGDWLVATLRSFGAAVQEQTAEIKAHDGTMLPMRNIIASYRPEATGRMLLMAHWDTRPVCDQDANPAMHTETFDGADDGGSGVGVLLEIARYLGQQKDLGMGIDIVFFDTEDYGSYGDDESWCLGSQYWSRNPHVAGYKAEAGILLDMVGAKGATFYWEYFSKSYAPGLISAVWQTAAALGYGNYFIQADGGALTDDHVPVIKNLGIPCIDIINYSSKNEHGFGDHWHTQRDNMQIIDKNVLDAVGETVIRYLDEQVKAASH

`Clc1ccc(CNc2cnc3nc[nH]c3c2)cc1` [S-316, N-(4-chlorobenzyl)imidazo[4,5-b]pyridin-6-amine]: the “P. gingivalis growth inhibition, dependence on concentration” value in the assay on P. gingivalis ATCC 33277 and with P. gingivalis J374-1 was “dose-dependent; also recorded: concentration-dependent manner” throughout. Besides, the MIC in words result in assay [1] (P. gingivalis clinical isolate), in [2] (P. gingivalis laboratory strain), in [3] (P. gingivalis clinical isolate), in assay [5] (P. intermedia) and in assay [6] (T. forsythia) was “submillimolar” each time. Also, the MIC – broadly, the lowest concentration found to suppress growth – was 500 µM (≈ 129 µg/mL) in assay [1] (Porphyromonas gingivalis, P. gingivalis J374–1 clinical isolate, 42 h); 500 µM (≈ 129 µg/mL) in assay [2] (Porphyromonas gingivalis, ATCC33277, P. gingivalis ATCC 33277, 42 h); 250 µM (≈ 64.7 µg/mL) in assay [3] (Porphyromonas gingivalis, P. gingivalis M5-1-2 clinical isolate, 42 h); above 2000 µM in assay [4] (Fusobacterium nucleatum, ATCC25586, F. nucleatum ATCC 25586, 42 h); 125 µM (≈ 32.3 µg/mL) in assay [5] (Prevotella intermedia, ATCC25611, P. intermedia ATCC 25611, 42 h); 500 µM (≈ 129 µg/mL) in [6] (Tannerella forsythia, ATCC43037, T. forsythia ATCC 43037, 42 h). In assay [7] (Streptococcus gordonii, ATCC10558, S. gordonii ATCC 10558, 18 h), the MIC is above 2000 µM. In addition, the Ki – broadly, a dissociation constant, usually derived from enzyme kinetics or from competition with a known ligand – was found to be 0.655 ± 0.027 µM at HsQC and 0.053 ± 0.0011 µM on PgQC. The Growth attenuation entry is “did not result in growth attenuation” in assay [4] (Gram-negative F. nucleatum, no QC-like enzyme) and “did not result in growth attenuation” in assay [7] (Gram-positive S. gordonii, no QC-like enzyme).

Values taken from article PMC7948796, “Mammalian-like type II glutaminyl cyclases in Porphyromonas gingivalis and other oral pathogenic bacteria as targets for treatment of periodontitis” (The Journal of Biological Chemistry, 2021).
